This is an account of results in patent publication US20030134901A1, “Lipoxin compounds and their use in treating cell proliferative disorders” (priority 1993, published 2003).

Series [1] concerns PMA-treated HL-60 cells. Put plainly: Lipoxin metabolism / bio-half-life assay with phorbol ester-treated HL-60 cells. In kind it is in vitro ADME, human. To be noted: at times up to two hours. As for the experimental part:
HL-60 cells were purchased from American Type Culture Collection (Rockville, Md.), and other cell culture reagents were from GIBCO (Grand Island, N.Y.). Versene (EDTA) was from Whittaker Bioproducts (Walkersville, Md.). Synthetic 11,12-acetylenic LXA4 methyl ester and LXs were from Cascade Biochemical (Reading, U.K.). 15(S)-15-m-PGE1, PGE1, and 5-HETE were from Cayman Chemical Co. (Ann Arbor, Mich.). [11,12-^3H]LXA4 was prepared from 11,12-acetylenic LXA4 using Lindlar catalyst as a custom tritiation (NET-259, lot 0 2793-275, New England Nuclear, Boston, Mass.). Tritiated products were isolated using RP-HPLC (Fiore et al. (1992) J. Biol. Chem. 267:16168; Serhan, C. N. (1990) Meth. Enzymol. 187:167). Methoxyamine and NAD were from Sigma Chemical Company (St. Louis, Mo.). Manganese dioxide and Adams reagent were from Aldrich Chemical Co. (Milwaukee, Wis.).
Human PMN were obtained from healthy volunteers by gradient centrifugation of heparinized fresh venous blood (Böyum, A. ([…]) Scand. J. Clin. Lab. Invest. 21:77). HL-60 cells were seeded in RPMI supplemented with penicillin (100 U/ml), streptomycin (100 μ/ml), fetal bovine serum (10%) (Hyclone, Logan, Utah) and incubated (37° C. with 5% CO2 atmosphere) in plastic 250 ml flasks. Individual flasks containing […] HL-60 cells/ml were incubated in the presence or absence of phorbol 12-myristate 13-acetate (PMA) (10 or 16 nM, 24-27 h) and adherence was monitored for induction of macrophage-like phenotype as in Collins, S. J. (1987) Blood 70:1233. […]
Incubations with eicosanoids were stopped with cold methanol containing either PGB2 or 5-HETE as internal standards (5-HETE was used when 15-oxo-ETE was quantified). […] Formation of 15-oxo-ETE by 100,000 g supernatants (cf. Agins, A. P. et al. (1987) Agents Actions 21:397; Xun, C-Q. et al.(1991) Biochem. J. 279:553; and Sok, D-E. et al. (1988) Biochem. Biophys. Res. Commun. 156:524) was quantified after RP-HPLC using an ODS column (4.6 mm×25 cm) eluted with methanol/H2O/acetic acid (70:30:0.01, v/v/v) monitored at 280 nm with a flow rate of 1 ml/min. […] On-line spectra were recorded using a diode array detector (Hewlett-Packard 1040M series II) equipped with HPLC^3D ChemStation software (DOS series). […]
The “bio-half-life” of compounds 1-8 was assessed using phorbol ester-treated human promyelocytic leukemia (HL-60) cells as described in Example 2. […]

Series [2] concerns neutrophil adhesion to endothelial cells. Description: Neutrophil adhesion assay. The class given is cell-based. To be noted: read-out: IC50, PMN adhesion triggered by LTB4 to human endothelial cells; triggered by leukotriene B4. As for the experimental part:
Several of the preferred LX analogs (shown structurally as compounds 1 through 8 above) were prepared by total synthesis as described in Example 1. Following preparation and isolation of these compounds via HPLC, compounds were first assessed to determine whether they retain biological activity using the neutrophil adhesion assay and epithelial cell transmigration assays (as described in Nash, S et al., (1987) J. Clin. Invest. 80:1104-1113; Nash, S et al., (1991) J. Clin. Invest. 87: 1474-1477; Parkos, C. A. et al., (1991) J. Clin. Invest. 88:1605-1612; Parkos, C. A. et al. (1992) J. Cell. Biol. 117:757-764; Madara J. L. et al., (1992) J. Tiss. Cult. Meth. 14:209-216).

As a reminder, the IC50 is the concentration that inhibits the measured activity by half. For the compound `CCCCCC(C)(O)C=CC=CC=CC=CC(O)C(O)CCCC(=O)O` (centres unmarked) [compound 2, 15-methyl-LXA4], the “recovery in the incubation medium (bio-half-life)” value in series [1] is recorded as “quantitatively recovered”. Moreover, the IC50 in series [2] is roughly 1 nM.
